Measurements as given in a melting point compilation (Tetko et al.; mined from patent text by program, amines drawn as free bases though some values may be those of a salt).

Compound	melting point
COC(=O)C1=C(CF)NC(C)=C(C(=O)OC(C)C)C1c1cccc([N+](=O)[O-])c1Cl (stereo not given)	156 to 157 °C
CC1=C(C)C(O)N(c2nnc(C(C)(C)C)s2)C1=O (stereo not given)	179 to 182 °C
Cc1cccc(C)c1NC(=O)C(C)N1CSCC1=O (stereo not given)	153 to 154 °C
Cn1nnc(-c2ccc(C=Cc3ccc(-c4nc5ccccc5o4)cc3)cc2)c1-c1nc2ccccc2o1	246 to 249 °C
CC(=O)c1cc(Cl)sc1S(N)(=O)=O	178 to 179 °C
O=Cc1cc(S(=O)(=O)n2ccc3ccccc32)ccc1Br	106 to 108 °C
O=C(O)CC1c2ccccc2CCN1S(=O)(=O)c1ccc2ccccc2c1 (stereo not given)	132 °C
CCOC(=O)C(=O)c1ccc(OCCCOc2ccc(C(C)=O)c(O)c2)cc1	63 to 65 °C
O=S1(=O)CCCSC(Cl)=N1	156 °C
O=C1NCN(c2ccc(F)cc2)C12CCN(C1CCC(c3ccc(F)cc3)(c3ccc(F)cc3)CC1)CC2	237 to 240 °C
O=C(CC[N+](=O)[O-])c1ccccc1	59 to 62 °C
C#CCN1CCC(N2C(=O)Nc3ccccc3C2c2ccccc2)CC1 (stereo not given)	198 to 201 °C
CC(C)(C)OC(=O)N1CCCC(O)(C#Cc2cccc(Cl)c2)C1 (stereo not given)	128 to 129 °C
COC(=O)c1ccc(Cl)cc1NC(=O)Cc1cccc(OC)c1	144 to 146 °C
O=C(O)C1=Cc2cc(Cl)cc(Cl)c2NC1C(F)(F)F (stereo not given)	223 to 226 °C
CC(C)N(C(=O)CN1C(=O)C(C)(CC(=O)Nc2ccccc2)C(=O)N(c2ccc(Cl)cc2)c2ccccc21)c1ccccc1 (stereo not given)	170 to 176 °C
CCOC(=O)N1CCc2cc(OC)c(OC)cc2CC1	91 to 93 °C
COC(=O)C=Cc1cc2c(nc1C)C(=Cc1ccccc1)CCC2	121 to 123 °C
O=C(NC1CCCCC1)c1c(O)c2ccccc2[nH]c1=O	221 °C
COc1cn(-c2ccc(-n3cccn3)cc2F)nc(-c2ccnn2-c2ccccc2)c1=O	214 to 216 °C
CC(C)n1cc2c3c(cccc31)C1CC(C(=O)NC3CCCC3O)CN(C)C1C2 (stereo not given)	232 to 234 °C

Compound	melting point
CC(C)(C)OC(=O)Nc1cc(N2CCSCC2)c(I)cc1N	125 to 127 °C
Cc1ccc2c3c(c(=O)[nH]c2c1)C(=O)c1ccccc1-3	> 290 °C
OC1CSC(Oc2ccccc2-c2ccoc2)C(O)C1O (stereo not given)	102 °C
Oc1cccc(CN2CCCC2)c1	100 to 102 °C
CC(=O)NC[C@H]1CN(c2ccc(N3CC(N(C)CCF)C3)c(F)c2)C(=O)O1	126 to 127 °C
Cc1c(C(=O)Nc2ccc(N3CCC(N4CCOCC4)CC3)cc2C#N)cnn1-c1ccc(Cl)cc1	212 to 213 °C
COC(=O)C(CC(C)C)NC(=O)C(CC(=O)c1ccccc1)Cc1ccccc1 (stereo not given)	81 to 83 °C
O=C(Nc1ccc(F)cc1)N(CCO)CCCCO	62 to 64 °C
O=C(CCCCl)c1cc2c3c(c1)CCN3C(=O)CC2	123 to 124 °C
O=C1c2cccc3c(N4CCCC4)c([N+](=O)[O-])cc(c23)C(=O)N1O	249 to 252 °C
C/C(=C\c1ccc(-c2ccccc2)cc1)C(=O)O	178 °C
COC(=O)c1nn(-c2c(Cl)cc(C(F)(F)F)cc2Cl)c(OC)c1SC(F)(F)F	97 to 98 °C
CCC(=O)NCCC1CCc2cc(Br)c3c(c21)C=CCO3 (stereo not given)	110 to 111 °C
Nc1nc(N2CCC2)c2ncn(C3C=CC(CO)C3)c2n1 (stereo not given)	187 to 189 °C
CCOC(=O)CCNC=C(C(=O)OCC)C(=O)c1cc(F)c(Cl)c([N+](=O)[O-])c1Cl	107 to 108 °C
CC(=O)c1c(C)[nH]c(-c2ccncc2)c1-c1ccncc1	236 to 239 °C
CSc1cc2cc(C)ccc2cc1C=O	117 to 118 °C
CC(=O)C(C#N)c1cc(Cl)cc(Cl)c1Cl (stereo not given)	134 to 135 °C
COc1ccccc1NC(=O)NC1N=C(c2ccccc2)c2ccccc2N(C)C1=O (stereo not given)	258 to 260 °C
COc1ccc(S(=O)(=O)N2C(=O)C(NC(C)=O)(c3ccccc3)c3cc(Cl)ccc32)c(OC)c1 (stereo not given)	253 °C

Results, then the compound that gave them:

melting point	Compound
> 300 °C	O=c1[nH]c2cc(Br)cc3c2n(c1=O)CC3
138 °C	COc1c2nc3ccccc3sc-2c(C)c(=O)c1OC
256 to 257 °C	CCOc1cc(-n2nc(C(=O)O)cc2-c2ccc(-c3ccco3)cc2)ccc1S(C)(=O)=O
227 to 228 °C	CC1(C)CCC(C)(C)c2cc(C#Cc3ccc(-c4nnn[nH]4)cc3)ccc21
89 to 92 °C	CC(C)(C)OC(=O)[C@@H]1CCCN1C(=O)Cl
130 to 132 °C	Nc1nc2ccccc2c2c1ncn2CCOCCCc1cccs1
99 to 101 °C	CCC(C)(O)CNc1c(N)c(Cl)nc2ccccc12 (stereo not given)
98 to 99 °C	Cc1cc(Oc2ncc(C(F)(F)F)cc2Cl)nn1C(=O)NC1CC1
256 to 260 °C	Cc1c(C)c(N2CCN(c3c(C)c(C)c4c(c3C)CC(C)(C)O4)CC2)c(C)c2c1OC(C)(C)C2
111 to 113 °C	CCC(=O)NCC=C1CCc2ccc3nc(CCCCc4ccccc4)oc3c21
61.5 to 62.5 °C	Cc1cccc(C(=O)C(=O)c2ccccc2)c1C
134 to 135 °C	CS(=O)(=O)c1ccc(C2=C(c3ccc(C(F)(F)F)cc3)CCC2)cc1
164 to 165 °C	Cc1cc(Nc2ccnc(Nc3ccc(S(=O)(=O)N(C)C4CCC(F)(F)CC4)cc3)n2)ccc1F
206 to 208 °C	COc1cccc(OC)c1C(=O)NC(=S)NNC(=O)c1ccc(Cl)cc1
275 to 278 °C	O=c1[nH]cnc2cscc12
120 °C	Cc1cccc(C(=O)O)c1N(C)S(=O)(=O)c1ccc(OCCCNC(=O)c2ccc3c(c2)OCO3)cc1
148 to 150 °C	CCC(C)(CC)N=C(NC#N)Nc1cc(Cl)cc(Cl)c1
233 to 234 °C	O=C1c2ccc([N+](=O)[O-])c3c([N+](=O)[O-])c(Br)cc(c23)C(=O)N1O
169 to 170 °C	CS(=O)(=O)c1ccc(-n2nc(C(F)(F)F)cc2-c2ccc(-c3cncs3)cc2)cc1
58 to 60 °C	CC(=CC(=O)O)c1ccc(-c2ccc(F)cc2)cc1

melting point	Compound
203 to 205 °C	COc1cc(NC(=O)c2ccccn2)ccc1Oc1ncccn1
110 °C	O=C(O)CN1C(=O)CC1SCc1ccccc1 (stereo not given)
148 to 150 °C	CCC(Oc1cccc(C)c1C)C(=O)OC1CC(O)C=C2C=CC(C)C(CCC3CC(O)CC(=O)O3)C21 (mixture of isomers)
123 to 124 °C	NC(CCN1CCC(O)(Cc2ccccc2)CC1)C(=O)c1ccccc1 (stereo not given)
186 to 189 °C	CC(=O)OC1CSC(Oc2cccc(-c3cccc(Cl)n3)c2)C(OC(C)=O)C1OC(C)=O (stereo not given)
216 to 217 °C	CCn1nc2c(N)nc3ccccc3c2c1CCCCN1C(=O)c2ccccc2C1=O
90 to 92 °C	OCC1OC(n2c(Cl)nc3c(NCc4ccccc4)ncnc32)C(O)C1O (stereo not given)
205 to 213 °C	COC(=O)C1=C(C)NC(CC(=O)N2CCN(C3CC4CCC(C3)N4Cc3ccccc3OC)CC2)=C(C(=O)OC)C1c1c(Cl)cccc1Cl (stereo not given)
192 °C	Clc1ccc(-c2n[nH]c3cc4ccccc4cc23)cc1
134 to 135 °C	COc1ccc([C@@H]2CN(C)CC[C@@H]2NC(=O)c2ccc(Cl)c(Cl)c2)cc1OC (relative stereo)
> 250 °C	O=c1ccc(-c2cccc(-c3ccc(=O)[nH]n3)c2)n[nH]1
229 to 231 °C	Cc1cc(-c2[nH]c3ccc([N+](=O)[O-])cc3c2C)cc(C)c1O
201 to 210 °C	Nc1ccc(Oc2ccc3ccc(Oc4ccc(N)c(O)c4)cc3c2)cc1O
206 to 209 °C	Oc1cnc2[nH]ccc2c1
158 °C	CN(C)c1cncc(C(=NCCc2ccccc2Cl)NC#N)c1
288 to 290 °C	Cc1nc2cc(NC(=O)c3cc4cc(-c5ccccc5)ncc4n3Cc3cccc(F)c3)ccc2n1C
170 to 171 °C	OCc1c(CO)c(-c2ccc(Cl)cc2)n2c1Cc1ccccc1C2
195 to 197 °C	COc1ccc(N(Cc2ccc(N(C)C)cc2)C(=O)C2CCCc3c(O)cccc32)cc1 (stereo not given)
118 to 119 °C	CCCCCCCCCc1nnc(C2=C(OC(C)=O)c3ccccc3S(=O)(=O)N2C)o1
146 °C	Cc1cc(N)c(C)c(C(=O)O)c1

melting point	Compound
92 °C	COc1ccc(Cc2cccc(C(O)(C3=NCCCN3)c3ccccc3)c2)cc1 (stereo not given)
183 to 185 °C	CCN1C(=O)CCCc2c1ccc(Nc1ncc(Cl)c(Nc3ccccc3-n3cccn3)n1)c2OC
168 °C	O=C(c1ccc(F)c(F)c1)N1CCCC(c2noc(-c3ccc[nH]3)n2)C1 (stereo not given)
173 °C	COc1ccc2ncc(Cl)c(OC[C@@H]3CC[C@@H](NC(=O)OC(C)(C)C)CO3)c2c1
218 to 220 °C	CCOC(=O)C(=O)Nc1coc2cc(OC)ccc2c1=O
162 to 163 °C	Cc1c(NC(=O)c2ccc(-c3ccc(F)cc3)c(F)c2)ccc2cc(CN3CCCCCC3)cnc12
134 to 136 °C	O=[N+]([O-])c1cc(Cl)c(Cl)cc1NC1CCC(O)C1O (stereo not given)
45.5 °C	COC(CC#N)=NC#N
199 to 202 °C	Cc1cc(C)c(OC(=O)NC2CC2c2ccc(-c3ncn(-c4ccc(OC(F)(F)F)cc4)n3)cc2)c(C)c1 (stereo not given)
118 to 120 °C	NC(=O)CCn1nccc1-c1ccc(Oc2ccc(F)cc2)cc1
113 to 115 °C	C=CCOc1cccn2c(=O)cc(C)nc12
116 to 118 °C	N#CC1CCn2c(cc3ccccc32)C1 (stereo not given)
188 to 190 °C	COc1ccc(Oc2c(Br)cc(C=O)cc2[N+](=O)[O-])cc1Cc1ccc(=O)[nH]n1
183 to 184 °C	O=C(Nc1ccc(C(F)(F)F)cc1)C1=NN(c2cccc(Cl)c2)C(c2ccccc2)CC1 (stereo not given)
> 300 °C	COc1ccc2nc3[nH]cnc(=O)c3cc2c1
154 to 156 °C	COc1cc2c(cc1OC)C(=CN1CCN(C)CC1)C(=O)N2
207 to 209 °C	O=C(O)C=Cc1ccc(OCCC(c2ccccc2)(c2ccccc2)c2ccccc2)cc1
205 °C	COc1cc(F)c(N2CCCC2=O)c(S(N)(=O)=O)c1
203 to 205 °C	O=C1c2ccccc2N(Cc2ccccc2)C2=NCCN12
